Laboratory results from US7781421B2, “Neuroactive 13, 24-cyclo-18, 21-dinorcholanes and structurally related pentacyclic steriods” (Washington University, priority 2003, dated 2010).
Where “and” joins values, the source holds several entries; their conditions need not be identical. Equal entries are not always repeated.

What was measured:
[1] = target: GABAA receptor ([35S]-TBPS binding site, rat brain cortical membranes); assay: Displacement of [35S]-TBPS binding, rat brain cortical membranes; conditions: 5 μM GABA, 2 nM [35S]-TBPS; ± standard error of the means
How it was run: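 Rat cortical P2 membranes (0.5 mg/mL protein) incubated 2 h at room temperature with 2 nM [35S]-TBPS, 5 μM GABA and steroid (1 nM–10 μM) in 200 mM NaCl/50 mM potassium phosphate, pH 7.4. Filter-bound radioactivity counted; IC50 from Hill equation fit, triplicate points.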

[2] = target: T1, rat α1β2γ2 GABAA Receptor (Rattus norvegicus, UniProt P18508+P62813+P63138, INS375LLRMFSFK); assay: Xenopus oocyte two-electrode voltage-clamp electrophysiology; type: cell-based; conditions: for Oocyte electrophysiology, ratio of currents in presence/absence of compound, 10 μM: 10 μM compound co-applied with 2 μM GABA; for Oocyte electrophysiology, ratio of currents in presence/absence of compound, 10 μM / Oocyte electrophysiology, ratio of currents in presence/absence of compound, 0.1 μM / Oocyte electrophysiology, ratio of currents in presence/absence of compound, 1 μM: −70 mV; for Oocyte electrophysiology, ratio of currents in presence/absence of compound, 0.1 μM: 0.1 μM compound co-applied with 2 μM GABA; for Oocyte electrophysiology, ratio of currents in presence/absence of compound, 1 μM: 1 μM compound co-applied with 2 μM GABA; for Gating (10 μM), ratio of compound only current/2 μM GABA current: direct current gated by 10 μM compound in the absence of GABA
T1 construct: from linearized pBluescript vectors containing receptor coding regions; expressed in transfected cells; host or cells: Xenopus laevis oocytes injected with in vitro transcribed capped mRNA
How it was run: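 Oocytes injected with rat α1, β2, γ2L mRNA, voltage-clamped at −70 mV 2-5 days later in ND96. Compounds co-applied with 2 μM GABA for 20 s; peak current ratio with/without compound, n≥4 oocytes. (G): current from 10 μM compound alone, as ratio to 2 μM GABA current.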

Xenopus laevis tadpoles = assay: Tadpole loss of righting (LRR) and swimming (LSR) reflexes; type: in vivo; conditions: 3 h equilibration at room temperature; for EC50: Xenopus laevis, 3 h, read-out: LSR EC50 (loss of swimming response)
How it was run: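 Groups of 10 early prelimb-bud Xenopus laevis tadpoles were held for 3 h at room temperature in oxygenated Ringer's containing compound (DMSO ≤0.1%). Loss of righting was scored as failure to right within 5 sec after flipping, and loss of swimming as failure to swim when touched. EC50 came from a Hill equation fit.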

T1 sequence (P62813 28-455, stated change not applied): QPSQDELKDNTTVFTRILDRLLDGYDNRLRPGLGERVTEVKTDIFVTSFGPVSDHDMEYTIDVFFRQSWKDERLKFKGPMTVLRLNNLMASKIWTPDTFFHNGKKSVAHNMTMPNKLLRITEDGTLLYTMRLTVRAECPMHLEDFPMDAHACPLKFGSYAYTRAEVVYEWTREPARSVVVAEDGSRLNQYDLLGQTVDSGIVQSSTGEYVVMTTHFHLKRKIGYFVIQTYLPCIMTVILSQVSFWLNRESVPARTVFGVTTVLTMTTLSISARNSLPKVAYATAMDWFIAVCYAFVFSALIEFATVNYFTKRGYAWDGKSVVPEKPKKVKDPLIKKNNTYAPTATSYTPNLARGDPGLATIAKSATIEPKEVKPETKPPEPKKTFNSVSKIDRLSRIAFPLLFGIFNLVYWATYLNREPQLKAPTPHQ
T1 sequence (P63138 26-474, stated change not applied): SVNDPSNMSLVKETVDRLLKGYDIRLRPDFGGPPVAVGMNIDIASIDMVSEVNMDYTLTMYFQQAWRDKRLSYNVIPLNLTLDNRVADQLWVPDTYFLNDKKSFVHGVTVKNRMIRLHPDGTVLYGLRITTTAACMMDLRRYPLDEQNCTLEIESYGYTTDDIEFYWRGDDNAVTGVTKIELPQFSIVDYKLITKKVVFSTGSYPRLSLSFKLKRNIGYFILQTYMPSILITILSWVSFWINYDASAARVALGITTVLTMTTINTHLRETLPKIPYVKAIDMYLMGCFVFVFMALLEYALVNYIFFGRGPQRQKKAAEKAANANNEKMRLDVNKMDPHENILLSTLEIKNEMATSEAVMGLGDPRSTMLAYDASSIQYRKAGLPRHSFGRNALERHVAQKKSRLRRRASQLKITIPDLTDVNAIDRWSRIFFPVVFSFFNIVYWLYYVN
T1 sequence (P18508 with tags, fused parts or gaps INS375LLRMFSFK): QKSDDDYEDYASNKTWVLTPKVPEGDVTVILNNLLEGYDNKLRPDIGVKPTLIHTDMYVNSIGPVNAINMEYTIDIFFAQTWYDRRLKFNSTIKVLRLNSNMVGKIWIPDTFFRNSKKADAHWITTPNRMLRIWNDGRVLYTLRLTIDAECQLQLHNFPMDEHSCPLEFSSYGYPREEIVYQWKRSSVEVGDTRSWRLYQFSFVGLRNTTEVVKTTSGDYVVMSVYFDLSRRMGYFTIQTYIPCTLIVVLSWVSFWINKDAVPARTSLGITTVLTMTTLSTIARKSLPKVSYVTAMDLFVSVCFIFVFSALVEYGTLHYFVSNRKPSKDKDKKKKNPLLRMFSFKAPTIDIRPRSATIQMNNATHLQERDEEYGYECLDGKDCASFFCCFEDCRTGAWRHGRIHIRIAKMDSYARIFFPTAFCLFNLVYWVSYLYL

Row | SMILES | IC50 [1] [nM] | Oocyte electrophysiology, ratio of currents in presence/absence of compound, 10 μM [2] | LRR ED50 (loss of righting response) (Xenopus laevis tadpoles) | EC50 (Xenopus laevis tadpoles) [nM] | melting point | Oocyte electrophysiology, ratio of currents in presence/absence of compound, 0.1 μM [2] | Oocyte electrophysiology, ratio of currents in presence/absence of compound, 1 μM [2] | Gating (10 μM), ratio of compound only current/2 μM GABA current [2] | LSR EC50 (loss of swimming response) (Xenopus laevis tadpoles)
1 | C[C@]12CC[C@@H](O)C[C@@H]1CCC1C3CC[C@@H]4CC[C@H](C#N)C[C@]34CCC12 (stereo partly drawn) [Compound 50, (3α,5α,20S)-3-Hydroxy-13,24-cyclo-18,21-dinorcholane-23-carbonitrile] | 482 ± 20 | 2.1 ± 0.2 | 350 ± 70 nM | 950 ± 10 | 157 to 159 °C |  |  |  | 
2 | C=C1CCC[C@]23CCC4C(CC[C@H]5C[C@H](O)CC[C@]45C)C2CC[C@H]13 (stereo partly drawn) [Compound 51, (3α,5α)-20-Methylene-13,24-cyclo-18,21-dinorcholan-3-ol] | 181 ± 9 | 0.95 ± 0.05 | >10000 nM |  | 211 to 213 °C | 0.90 ± 0.15 | 0.93 ± 0.08 | −0.06 ± 0.06 | None @ 10
3 | C=C1CCC[C@]23CCC4C(CC[C@@H]5C[C@H](O)CC[C@]45C)C2CC[C@H]13 (stereo partly drawn) [Compound 52, (3α,5α)-20-Methylene-13,24-cyclo-18,21-dinorcholan-3-ol] | 213 ± 21 | 6.22 ± 0.92 | 4880 ± 1120 nM | > 10000 | 131 to 133 °C | 1.57 ± 0.16 | 3.47 ± 0.50 | −0.02 ± 0.02 | 
4 | C[C@]12CC[C@@H](O)C[C@@H]1CCC1C3CC[C@@H]4C(C#N)=CCC[C@]34CCC12 (stereo partly drawn) [Compound 57, (3α,5α)-3-Hydroxy-13,24-cyclo-18,21-dinorchol-20(22)-ene-20-carbonitrile] | 433 ± 30 | 3.18 ± 0.24 | 420 nM |  | 193 to 195 °C | 0.91 ± 0.03 | 0.96 ± 0.04 | 0.01 ± 0.02 | None @ 10
5 | C[C@]12CC[C@@H](O)C[C@@H]1CCC1C3CC[C@@H]4C=CC=C[C@]34CCC12 (stereo partly drawn) [Compound 60, (3α,5α)-13,24-Cyclo-18,21-dinorchol-20(22),23-dien-3-ol] | 467 ± 26 | 1.1 ± 0.1 | 2700 ± 720 nM | > 10000 | 136 to 138 °C |  |  |  | 
6 | C[C@]12CC[C@@H](O)C[C@@H]1CCC1C3CC[C@@H]4CCC=C[C@]34CCC12 (stereo partly drawn) [Compound 61, (3α,5α)-13,24-Cyclo-18,21-dinorchol-23-en-3-ol] | 2000 ± 190 | 1.72 ± 0.26 | None @ 10 |  | 166.5 to 169 °C | 1.28 ± 0.08 | 1.47 ± 0.10 | 0.19 ± 0.10 | None @ 10
7 | C[C@]12CC[C@@H](O)C[C@@H]1CCC1C3CC[C@@H]4/C(=C/C#N)CCC[C@]34CCC12 (stereo partly drawn) [Compound 63, (3α,5α,20E)-3-Hydroxy-13,24-cyclo-18-norcholan-20-ene-21-carbonitrile] | 11 ± 1.8 | 17.82 ± 3.75 | 40 ± 0 nM | 80 ± 20 | 210 to 212 °C and 214 to 216 °C | 6.29 ± 1.71 | 12.34 ± 3.28 | 0.01 ± 0.02 | 
8 | CC12CCC(O)CC1CCC1C2CCC23CCCC(=CC#N)C2CCC13 (stereo not drawn) [Compound 64, (3α,5α,20Z)-3-Hydroxy-13,24-cyclo-18-norcholan-20-ene-21-carbonitrile] | 1080 | 1.74 ± 0.11 | 680 ± 150 nM | 10200 | 201.5 to 203 °C | 1.19 ± 0.04 | 1.27 ± 0.03 | 0.03 ± 0.04 | 
9 | CC12CCC(O)CC1CCC1C2CCC23CCCC(O)C2CCC13 [Compound 67, (3α,5α,20S)-13,24-cyclo-18,21-dinorcholane-3,20-diol] | 613 ± 92 | 1.37 ± 0.15 | None @ 10 |  | 261 to 262 °C | 0.89 ± 0.03 | 0.94 ± 0.08 | −0.01 ± 0.00 | None @ 10
10 | CC12CCC(O)CC1CCC1C2CCC23CCCC(O)C2CCC13 [Compound 68, (3α,5α,20R)-13,24-cyclo-18,21-dinorcholane-3,20-diol] | 1540 | 0.79 ± 0.04 | >10000 nM |  | 269 to 271 °C | 0.74 ± 0.05 | 0.74 ± 0.05 | 0.01 ± 0.02 | None @ 10
11 | COC1CCCC23CCC4C(CCC5CC(O)CCC54C)C2CCC13 [Compound 69, (3α,5α,20S)-20-Methoxy-13,24-cyclo-18,21-dinorcholan-3-ol] | 353 ± 38 | 1.72 ± 0.28 | None @ 10 |  | 182 to 183 °C | 0.90 ± 0.04 | 1.26 ± 0.09 | 0.00 ± 0.00 | None @ 10
12 | COC1CCCC23CCC4C(CCC5CC(O)CCC54C)C2CCC13 [Compound 70, (3α,5α,20R)-20-Methoxy-13,24-cyclo-18,21-dinorcholan-3-ol] | 868 ± 78 | 1.02 ± 0.03 | >10000 nM |  | 200 to 202 °C | 0.74 ± 0.01 | 0.87 ± 0.02 | 0.00 ± 0.00 | None @ 10
13 | C[C@]12CC[C@@H](O)C[C@@H]1CCC1C3CC[C@@H]4[C@H]5O[C@H]5CC[C@]34CCC12 (stereo partly drawn) [Compound 71, (3α,5α,20R,22S)-20,22-Epoxy-13,24-cyclo-18,21-dinorcholan-3-ol] | 596 ± 71 | 1.94 ± 0.23 | None @ 10 |  | 206 to 208 °C | 0.90 ± 0.05 | 1.05 ± 0.09 | 0.00 ± 0.00 | None @ 10
14 | C[C@]12CC[C@@H](O)C[C@@H]1CCC1C3CC[C@@H]4[C@@H]5O[C@@H]5CC[C@]34CCC12 (stereo partly drawn) [Compound 72, (3α,5α,20S,22R)-20,22-epoxy-13,24-cyclo-18,21-dinorcholan-3l] | 323 ± 25 | 6.39 ± 1.33 | 19300 ± 30800 nM |  | 203.5 to 205 °C | 0.90 ± 0.15 | 2.20 ± 0.25 | −0.01 ± 0.04 | None @ 10
15 | C[C@]12CC[C@@H](O)C[C@@H]1CCC1C3CC[C@@H]4[C@@]5(CCC[C@]34CCC12)CO5 (stereo partly drawn) [Compound 73, (3α,5α,20S)-20,21-Epoxy-13,24-cyclo-18-norcholan-3-ol] | 1290 | 4.84 ± 1.05 | 4000 ± 1080 nM |  | 186 to 192 °C (dec.) | 0.88 ± 0.05 | 2.54 ± 0.40 | −0.02 ± 0.04 | None @ 10
